Earlier results in patent US9422238B2, “ICMT inhibitors” (National University of Singapore, priority 2012, dated 2016).

Tested on: several malignant cell lines
Details: irrespective of Ras status; cited from earlier work

SMILES: COc1cccc(NCCC2(c3ccccc3)CC(C)(C)OC(C)(C)C2)c1 [3-methoxy-N-[2-(2,2,6,6-tetramethyl-4-phenyltetrahydropyran-4-yl)ethyl]aniline]
- GI50: ≥ 300 nM
